In patent EP4786487A1, “PEPTIDE” (Peptidream Inc, priority 2023, dated 2025):
Where two headings read alike, the source gives them in different places. Starred links: 1 amine or outer side, 2 acyl side, 3 side chain; linkers in the order of their positions; H or OH if unused. Positions of bridges follow the written chain, without caps; N, C: chain ends. Non-standard residues stand in square brackets, D forms with d. Residues, ends and D or L forms follow the SMILES beside them. Groups on a side chain read outwards from the residue. *: point of attachment. X8 = COc1ccc(-n2cc(C[C@H](N[*:1])C(=O)[*:2])c3ccccc32)cc1; Phe(3-OCH2COOH) = N[C@@H](Cc1cccc(OCC(=O)O)c1)C(=O)O; Trp(1-Ph) = N[C@@H](Cc1cn(-c2ccccc2)c2ccccc12)C(=O)O; NMePhe(3-Ph) = CN[C@@H](Cc1cccc(-c2ccccc2)c1)C(=O)O; Phe(4-COOH) = N[C@@H](Cc1ccc(C(=O)O)cc1)C(=O)O; Trp(7-aza) = N[C@@H](Cc1c[nH]c2ncccc12)C(=O)O; NMePhe(4-Cl) = CN[C@@H](Cc1ccc(Cl)cc1)C(=O)O; Piperazinyl(4-CH2COOH) = O=C(O)CN1CCN(*)CC1; Gly(N(CH2)3COOH) = O=C(O)CCCNCC(=O)O; X1 = CCCCCCC[C@H](N[*:1])C(=O)[*:2]; NMeCha = CN[C@@H](CC1CCCCC1)C(=O)O; NMeF = CN[C@@H](Cc1ccccc1)C(=O)O; 4Pal = N[C@@H](Cc1ccncc1)C(=O)O; NMeA = CN[C@@H](C)C(=O)O; CO = O=C([*:1])[*:2]; NEtG = CCNCC(=O)O; Sar = CNCC(=O)O

Columns and labels:
GDF-11 = target: T1, GDF-11 (Homo sapiens, UniProt O95390); test: HepG2 reporter gene assay, Evaluation Procedure (2): 2-concentrations assay, GDF-11 inhibition; type: cell-based; conditions: for inhibition at 0.03 µM: HepG2, peptide 30nM, read-out: GDF11 Inhibition 30nM; for inhibition at 0.03 µM / inhibition at 0.1 µM: GDF-11 10 ng/mL; for inhibition at 0.1 µM: HepG2, peptide 100nM, read-out: GDF11 Inhibition 100nM; for inhibition: read-out: inhibition rate (GDF-11 inhibition assay)
T1 construct: purchased R&D systems 1958-GD-G8/CF
T1 sequence (O95390 299-407): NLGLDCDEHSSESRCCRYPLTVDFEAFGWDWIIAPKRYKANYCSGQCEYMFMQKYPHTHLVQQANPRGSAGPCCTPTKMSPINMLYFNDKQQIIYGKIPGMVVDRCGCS
How it was run: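 HepG2 cells carrying the transfected pGL3(CAGA)12-luc reporter, a pGL3 vector with luciferase placed downstream of 12 CAGA repeats, were stimulated with GDF-11 at a final 10 ng/mL together with test peptide. Blank wells received no GDF-11 and no peptide. Plates were incubated 20 to 24 hours at 37°C with 5% CO2. Luminescence from One-Glo substrate was read to calculate percent inhibition.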

Myostatin = target: T2, Myostatin (Homo sapiens, UniProt O14793); test: HepG2 reporter gene assay, Evaluation Procedure (2): 2-concentrations assay, myostatin inhibition; type: cell-based; conditions: HepG2
T2 construct: active myostatin (also called mature myostatin) is a homodimer consisting of two C-terminal growth factor domains; purchased R&D systems 788-G8/CF
T2 sequence (O14793 267-375): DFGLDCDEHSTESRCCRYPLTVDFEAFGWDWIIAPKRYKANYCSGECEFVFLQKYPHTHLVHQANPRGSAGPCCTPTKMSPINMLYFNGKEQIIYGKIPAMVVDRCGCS
How it was run: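 HepG2 cells (HB-8065, ATCC) carrying the transfected pGL3(CAGA)12-luc reporter plasmid were treated with myostatin (788-G8/CF, R&D systems) at a final concentration of 10 ng/mL plus peptide and incubated at 37°C, 5% CO2 for 20 to 24 hours. Luminescence was read after adding PBS mixed 1:1 with One-Glo substrate, and inhibition rate was calculated.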

[1] = peptide 30nM, Myostatin 10 ng/mL, read-out: Myostatin Inhibition 30nM
[2] = peptide 100nM, Myostatin 10 ng/mL, read-out: Myostatin Inhibition 100nM
[3] = HepG2, first GDF-11 column of Table 7-3/7-4, GDF-11 10 ng/mL, peptide at the lower of the 2 concentrations
[4] = HepG2, second GDF-11 column of Table 7-3/7-4, GDF-11 10 ng/mL, peptide at the higher of the 2 concentrations
[5] = Table 7-3/7-4, myostatin 10 ng/mL, peptide at the higher of the 2 concentrations, read-out: inhibition rate (myostatin inhibition assay)
[6] = Table 7-3/7-4, myostatin 10 ng/mL, peptide at the lower of the 2 concentrations, read-out: inhibition rate (myostatin inhibition assay)

| Compound | inhibition at 0.03 µM (GDF-11) | inhibition at 0.1 µM (GDF-11) | inhibition at 0.03 µM (Myostatin; [1]) | inhibition at 0.1 µM (Myostatin; [2]) | inhibition (GDF-11; [3]) | inhibition (GDF-11; [4]) | inhibition at 0.1 µM (Myostatin; [5]) | inhibition at 0.03 µM (Myostatin; [6]) |
| --- | --- | --- | --- | --- | --- | --- | --- | --- |
| CC[C@H](C)[C@@H]1NC(=O)[C@H](Cc2ccccc2)N(C)C(=O)[C@H](Cc2ccc(O)cc2)NC(=O)[C@H](Cc2c[nH]c3ncccc23)NC(=O)[C@H](C)NC(=O)CN(CCCC(=O)O)C(=O)CSC[C@H](C(N)=O)NC(=O)[C@H](Cc2ccccc2)N(C)C(=O)[C@H](C)N(C)C(=O)[C@H](CC(C)C)NC(=O)[C@H](Cc2ccccc2)N(C)C(=O)[C@H](CCCNC(=N)N)NC(=O)[C@H](Cc2ccc(C(=O)O)cc2)NC(=O)[C@H](Cc2ccncc2)NC(=O)CN(C)C1=O [Myostatin_99_Variant_21] ({CH2CO}-[Gly(N(CH2)3COOH)]A[Trp(7-aza)]Y[NMeF]I[Sar][4Pal][Phe(4-COOH)]R[NMeF]L[NMeA][NMeF][dC]-NH2; thioether N-15) | 0% | 0% | 40% | 76% | – | – | – | – |
| CCCCCCC[C@@H]1NC(=O)[C@H](Cc2ccccc2)N(C)C(=O)[C@H](CCCNC(=N)N)NC(=O)[C@H](Cc2ccc(C(=O)O)cc2)NC(=O)[C@H](Cc2cccc(OCC(=O)O)c2)NC(=O)CN(C)C(=O)[C@H]([C@@H](C)CC)NC(=O)[C@H](Cc2ccccc2)N(C)C(=O)[C@H](Cc2ccc(O)cc2)NC(=O)[C@H](Cc2c[nH]c3ccccc23)NC(=O)[C@H](C)NC(=O)[C@H](C)NC(=O)CSC[C@@H](C(=O)N2CCN(CC(=O)O)CC2)NC(=O)[C@H](Cc2ccccc2)N(C)C(=O)[C@H](C)N(C)C1=O [Myostatin_99_v220] ({CH2CO}-AAWY[NMeF]I[Sar][Phe(3-OCH2COOH)][Phe(4-COOH)]R[NMeF][X1][NMeA][NMeF]C-{Piperazinyl(4-CH2COOH)}; thioether N-15) | 0% | 5% | 95% | 99% | – | – | – | – |
| CCCCCCC[C@@H]1NC(=O)[C@H](Cc2ccccc2)N(C)C(=O)[C@H](CCCNC(=N)N)NC(=O)[C@H](Cc2ccncc2)NC(=O)[C@H](Cc2cccc(OCC(=O)O)c2)NC(=O)CN(C)C(=O)[C@H]([C@@H](C)CC)NC(=O)[C@H](Cc2ccccc2)N(C)C(=O)[C@H](Cc2ccc(O)cc2)NC(=O)[C@H](Cc2c[nH]c3ccccc23)NC(=O)[C@@H](CCC(=O)O)NC(=O)[C@H](C)NC(=O)CSC[C@H](C(=O)O)NC(=O)[C@H](Cc2ccccc2)N(C)C(=O)[C@H](C)N(C)C1=O [Myostatin_99_v218] ({CH2CO}-A[dE]WY[NMeF]I[Sar][Phe(3-OCH2COOH)][4Pal]R[NMeF][X1][NMeA][NMeF][dC]-OH; thioether N-15) | 0% | 0% | 44% | 74% | – | – | – | – |
| CCCCCCC[C@@H]1NC(=O)[C@H](Cc2ccccc2)N(C)C(=O)[C@H](CCCNC(=N)N)NC(=O)[C@H](Cc2ccc(C(=O)O)cc2)NC(=O)[C@H](Cc2cccc(OCC(=O)O)c2)NC(=O)CN(C)C(=O)[C@H]([C@@H](C)CC)NC(=O)[C@H](Cc2cccc(-c3ccccc3)c2)N(C)C(=O)[C@H](Cc2ccc(O)cc2)NC(=O)[C@H](Cc2c[nH]c3ccccc23)NC(=O)[C@H](C)NC(=O)[C@H](C)NC(=O)CSC[C@H](C(=O)N2CCN(CC(=O)O)CC2)NC(=O)[C@H](Cc2ccccc2)N(C)C(=O)[C@H](C)N(C)C1=O [Myostatin_99_v304] ({CH2CO}-AAWY[NMePhe(3-Ph)]I[Sar][Phe(3-OCH2COOH)][Phe(4-COOH)]R[NMeF][X1][NMeA][NMeF][dC]-{Piperazinyl(4-CH2COOH)}; thioether N-15) | 0% | 0% | 74% | 88% | – | – | – | – |
| CC[C@H](C)[C@@H]1NC(=O)[C@H](Cc2ccccc2)N(C)C(=O)[C@H](Cc2ccc(O)cc2)NC(=O)[C@H](Cc2c[nH]c3ccccc23)NC(=O)[C@H](CCCCN)NC(=O)[C@H](C)NC(=O)CSC[C@@H](C(N)=O)NC(=O)[C@H](Cc2ccccc2)N(C)C(=O)[C@H](C)N(C)C(=O)[C@H](CC(C)C)NC(=O)[C@H](Cc2ccccc2)N(C)C(=O)[C@H](CCCNC(=N)N)NC(=O)[C@H](Cc2ccc(O)cc2)NC(=O)[C@H](Cc2ccc(O)cc2)NC(=O)CN(C)C1=O [Myostatin_000099_02K] ({CH2CO}-AKWY[NMeF]I[Sar]YYR[NMeF]L[NMeA][NMeF]C-NH2; thioether N-15) | 0% | 0% | 35% | 73% | – | – | – | – |
| CCCCCCC[C@@H]1NC(=O)[C@H](Cc2ccccc2)N(C)C(=O)[C@H](CCCNC(=N)N)NC(=O)[C@H](Cc2ccc(C(=O)O)cc2)NC(=O)[C@H](Cc2cccc(OCC(=O)O)c2)NC(=O)CN(C)C(=O)[C@H]([C@@H](C)CC)NC(=O)[C@H](Cc2ccc(Cl)cc2)N(C)C(=O)[C@H](Cc2ccc(O)cc2)NC(=O)[C@H](Cc2c[nH]c3ccccc23)NC(=O)[C@H](C)NC(=O)[C@H](C)NC(=O)CSC[C@H](C(=O)N2CCN(CC(=O)O)CC2)NC(=O)[C@H](Cc2ccccc2)N(C)C(=O)[C@H](C)N(C)C1=O [Myostatin_99_v308] ({CH2CO}-AAWY[NMePhe(4-Cl)]I[Sar][Phe(3-OCH2COOH)][Phe(4-COOH)]R[NMeF][X1][NMeA][NMeF][dC]-{Piperazinyl(4-CH2COOH)}; thioether N-15) | – | – | – | – | 0% | 3% | 97% | 87% |
| CCCCCCC[C@@H]1NC(=O)[C@H](Cc2ccccc2)N(C)C(=O)[C@H](CCCNC(=N)N)NC(=O)[C@H](Cc2ccc(C(=O)O)cc2)NC(=O)[C@H](Cc2cccc(OCC(=O)O)c2)NC(=O)[C@H](C)N(C)C(=O)[C@H]([C@@H](C)CC)NC(=O)[C@H](Cc2ccccc2)N(C)C(=O)[C@H](Cc2ccc(O)cc2)NC(=O)[C@H](Cc2cn(-c3ccc(OC)cc3)c3ccccc23)NC(=O)[C@H](C)NC(=O)CN(CCCC(=O)O)C(=O)CSC[C@H](C(=O)O)NC(=O)[C@H](Cc2ccccc2)N(C)C(=O)[C@H](C)N(C)C1=O [Myostatin_99_v379] ({CH2CO}-[Gly(N(CH2)3COOH)]A[X8]Y[NMeF]I[NMeA][Phe(3-OCH2COOH)][Phe(4-COOH)]R[NMeF][X1][NMeA][NMeF][dC]-OH; thioether N-15) | – | – | – | – | 0% | 0% | 100% | 100% |
| CCCCCCC[C@@H]1NC(=O)[C@H](Cc2ccccc2)N(C)C(=O)[C@H](CCCNC(=N)N)NC(=O)[C@H](Cc2ccc(C(=O)O)cc2)NC(=O)[C@H](CCCCNC(=O)N2CCN(CC(=O)O)CC2)NC(=O)CN(CC)C(=O)[C@H]([C@@H](C)CC)NC(=O)[C@H](CC2CCCCC2)N(C)C(=O)[C@H](Cc2ccc(O)cc2)NC(=O)[C@H](Cc2c[nH]c3ccccc23)NC(=O)[C@@H](CCC(=O)O)NC(=O)[C@H](C)NC(=O)CSC[C@H](C(=O)N2CCN(CC(=O)O)CC2)NC(=O)[C@H](Cc2ccccc2)N(C)C(=O)[C@H](C)N(C)C1=O [Myostatin_99_v258] ({CH2CO}-A[dE]WY[NMeCha]I[NEtG]K([CO-Piperazinyl(4-CH2COOH)])[Phe(4-COOH)]R[NMeF][X1][NMeA][NMeF][dC]-{Piperazinyl(4-CH2COOH)}; thioether N-15) | 0% | 0% | 21% | 61% | – | – | – | – |
| CCCCCCC[C@@H]1NC(=O)[C@H](Cc2ccccc2)N(C)C(=O)[C@H](CCCNC(=N)N)NC(=O)[C@H](Cc2ccc(C(=O)O)cc2)NC(=O)[C@H](Cc2cccc(OCC(=O)O)c2)NC(=O)[C@H](C)N(C)C(=O)[C@H]([C@@H](C)CC)NC(=O)[C@H](Cc2ccccc2)N(C)C(=O)[C@H](Cc2ccc(O)cc2)NC(=O)[C@H](Cc2cn(-c3ccccc3)c3ccccc23)NC(=O)[C@H](C)NC(=O)CN(CCCC(=O)O)C(=O)CSC[C@H](C(=O)O)NC(=O)[C@H](Cc2ccccc2)N(C)C(=O)[C@H](C)N(C)C1=O [Myostatin_99_v380] ({CH2CO}-[Gly(N(CH2)3COOH)]A[Trp(1-Ph)]Y[NMeF]I[NMeA][Phe(3-OCH2COOH)][Phe(4-COOH)]R[NMeF][X1][NMeA][NMeF][dC]-OH; thioether N-15) | – | – | – | – | 0% | 0% | 100% | 100% |
